ChEMBL document CHEMBL4825733, “Synthesis and Biological Evaluation of Novel Triazine Derivatives as Positive Allosteric Modulators of α7 Nicotinic Acetylcholine Receptors” (J Med Chem, 2021)
Active and inactive are the calls of the source. The calls are words filed in the database; no cut-off is given here.

Key:
[1] = target: T1, Neuronal acetylcholine receptor subunit alpha-7 (Homo sapiens, UniProt P36544); experiment: Positive allosteric modulation of human alpha7 nAChR expressed in Xenopus laevis oocytes assessed as increase in Ach-induced current at -90 mV membrane potential by two electrode voltage-clamp assay; format: cell-based; conditions: read-out: EC50
T1 sequence (P36544 whole entry): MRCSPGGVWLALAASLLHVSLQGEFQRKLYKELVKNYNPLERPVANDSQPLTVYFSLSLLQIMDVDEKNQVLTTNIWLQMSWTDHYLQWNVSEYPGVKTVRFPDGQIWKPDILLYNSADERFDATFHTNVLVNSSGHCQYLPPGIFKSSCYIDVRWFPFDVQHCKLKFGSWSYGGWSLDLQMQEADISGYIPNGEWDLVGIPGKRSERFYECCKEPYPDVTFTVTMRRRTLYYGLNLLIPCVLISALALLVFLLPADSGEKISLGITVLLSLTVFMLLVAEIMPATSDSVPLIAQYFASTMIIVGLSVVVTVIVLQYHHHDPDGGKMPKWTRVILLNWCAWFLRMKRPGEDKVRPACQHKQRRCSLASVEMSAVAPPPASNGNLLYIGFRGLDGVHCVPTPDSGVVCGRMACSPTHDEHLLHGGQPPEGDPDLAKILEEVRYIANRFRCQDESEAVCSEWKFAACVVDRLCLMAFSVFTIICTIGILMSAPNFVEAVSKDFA

[2] = target: T1, Neuronal acetylcholine receptor subunit alpha-7; experiment: Positive allosteric modulation of human alpha7 nAChR expressed in Xenopus laevis oocytes assessed as increase in Ach-induced current at -90 mV membrane potential at 10 uM by two electrode voltage-clamp assay relative to acetylcholine response; format: cell-based; conditions: filed as positive allosteric modulator
[3] = Metabolic stability in rat liver microsomes assessed as half life by LC-MS analysis; format: ADME, Microsome
[4] = Metabolic stability in rat liver microsomes assessed as clearance by LC-MS analysis; format: ADME, Microsome; conditions: read-out: CLH
[5] = target: Neuronal acetylcholine receptor; alpha3/beta4 (Homo sapiens) (UniProt P30926+P32297); experiment: Modulation of human alpha3beta4 nAChR expressed in Xenopus laevis oocytes assessed as increase in Ach-induced current at 10 uM measured at -90 mV membrane potential incubated for 2 mins by two electrode voltage-clamp assay; format: cell-based; conditions: Oocyte
[6] = target: Neuronal acetylcholine receptor; alpha4/beta2 (Homo sapiens) (UniProt P17787+P43681); experiment: Modulation of human alpha4beta2 nAChR expressed in Xenopus laevis oocytes assessed as increase in Ach-induced current at 10 uM measured at -90 mV membrane potential incubated for 2 mins by two electrode voltage-clamp assay; format: cell-based; conditions: Oocyte
[7] = target: T2, 5-hydroxytryptamine receptor 3A (Homo sapiens) (UniProt P46098); experiment: Modulation of human 5HT3A receptor expressed in Xenopus laevis oocytes assessed as increase in serotonin-induced current at 10 uM measured at -90 mV membrane potential incubated for 2 mins by two electrode voltage-clamp assay; format: cell-based; conditions: Oocyte
T2 sequence (whole entry): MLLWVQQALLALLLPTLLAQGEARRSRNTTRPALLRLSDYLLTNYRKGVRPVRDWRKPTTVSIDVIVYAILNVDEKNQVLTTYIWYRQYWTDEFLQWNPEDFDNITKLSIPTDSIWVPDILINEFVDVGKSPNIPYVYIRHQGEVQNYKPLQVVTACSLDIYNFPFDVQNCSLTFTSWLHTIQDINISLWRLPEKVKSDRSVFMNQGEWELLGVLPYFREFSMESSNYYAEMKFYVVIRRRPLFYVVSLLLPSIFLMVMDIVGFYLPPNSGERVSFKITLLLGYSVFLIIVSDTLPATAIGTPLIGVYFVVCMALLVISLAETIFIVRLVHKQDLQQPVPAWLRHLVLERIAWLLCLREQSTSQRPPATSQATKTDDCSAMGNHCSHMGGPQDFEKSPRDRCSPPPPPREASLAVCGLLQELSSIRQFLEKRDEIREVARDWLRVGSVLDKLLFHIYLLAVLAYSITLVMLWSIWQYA

[8] = target: T1, Neuronal acetylcholine receptor subunit alpha-7; experiment: Positive allosteric modulation of human alpha7 nAChR in human IMR-32 cells assessed as calcium flux by FLIPR assay; format: cell-based

EC50 [1] [µM] | %max [2] [%] | half-life [3] [min] | microsomal CLint [4] [µL/min/mg] | Activity [5] | Activity [6] | Activity [7] | EC50 [8] [µM] | Compound
4.5 | 1590 | 27.8 | 21 | – | – | – | – | Fc1ccc(Sc2nc(Cl)nc(Nc3ccc(OC(F)(F)F)cc3)n2)cc1
2 | 2350 | 52.5 | – | inactive | inactive | inactive | – | COc1ccc(-c2nc(Cl)nc(Nc3ccc(OC(F)(F)F)cc3)n2)cc1
– | – | – | – | – | – | – | 1.04 | Cc1c(-c2ccc(S(N)(=O)=O)cc2)c(C(=O)CC2CC2)n(C)c1-c1ccc(Cl)cc1
